Read-outs that look alike come from different tables or passages of the source.
Experiments:
human neutrophils = assay: In vitro respiratory burst (superoxide) assay; type: cell-based; conditions: Neutrophil, concentration required to reduce superoxide production to 50% of control, PMA-triggered respiratory burst, WST-1 dye reduction, compound 30 min before, read-out: Al50 (the source's name)
Procedure: Human neutrophils were isolated from anti-coagulated whole human blood using a Polymorphprep (density 1.13 g/mL, centrifuge 500×g, 40 min). Neutrophils were washed with PBS and plated out at 2×10^6 neutrophils per mL.
Neutrophils were treated with the compound (in DMSO) 30 minutes prior to addition of the detection dye WST-1 (5.5 mM). The respiratory burst was triggered by addition of PMA (200 ng/mL) and dye reduction was monitored (OD 450) for 25 minutes at 37° C.
Respiratory burst activity was calculated as the rate of dye reduction over time and was normalised to untreated cell controls. Anti-inflammatory activity is reported in Table 2 as the concentration required to reduce superoxide production to 50% of control, Al50.

[1] = test system: neutrophils in the peritoneal wash; assay: Mouse gout model (monosodium urate crystal-induced murine peritonitis); type: in vivo; conditions: Neutrophil, oral, immediately prior to MSU crystals i.p.
Procedure: Mouse Peritionitis was induced by intraperitoneal injection of 1 to 5 mg monosodium urate (MSU) crystals, in […] PBS (0.1M, pH 7.4). Animals were treated with the compound(s) (in 250 μL PBS orally) at the doses indicated immediately prior to administration of the MSU crystals. 4 hours post administration, animals were euthanased by CO2 exposure. The peritoneal cavity was washed with 3 mL of PBS containing 3 mM EDTA and 25 U/mL of heparin. The total cells in the lavage fluid were counted and an appropriate volume retained for H and E staining for differential counting (Getting et al. Molecular Determinants of Monosodium Urate Crystal—induced Murine Peritonitis: A role for Endogenous Mast Cells and a Distinct Requirement for Endothelial-derived Selectins. J. Pharmacology and Experimental Therapeutics 1997, 283: 123-30).
Treatment groups were as follows:
Untreated Control (Naive)
PBS Control (PBS oral+MSU crystals)
Compound(s),(oral)+MSU crystals

[2] = test system: lymphocytic leukemia cells; conditions: in vitro; cited from earlier work
rat glioma cells = conditions: in vitro; cited from earlier work
[3] = superoxide activity of neutrophils in peritoneal wash 4 hours post, read-out: % suppression Superoxide production
[4] = peritoneal wash 4 hours post, total neutrophils per mL, read-out: % suppression Neutrophil infiltration

SMILES | IC50 (human neutrophils) | inhibition in vivo at 25.6 µmol/kg [1, 3] | inhibition in vivo at 25.6 µmol/kg [1, 4] | cytotoxic to lymphocytic leukemia cells [2] | cytotoxic to rat glioma cells (rat glioma cells)
CCCCCCCCOC(=O)c1ccc2c(n1)C(=O)C1=C(C2=O)S(=O)(=O)CCN1 [Compound 4, Octyl-2H-pyrido[2,3-g][1,4]benzothiazine-5,10-dione, 3,4-dihydro-1,1-dioxo-7-carboxylate] | 9.04 µM | – | – | – | –
COC(=O)c1ccc2c(n1)C(=O)C1=C(C2=O)S(=O)(=O)CCN1 [Compound 3, Methyl-2H-pyrido[2,3-g][1,4]benzothiazine-5,10-dione, 3,4-dihydro-1,1-dioxo-7-carboxylate] | 1.12 µM | 80% | – | – | –
N#Cc1ccc2c(n1)C(=O)C1=C(C2=O)S(=O)(=O)CCN1 [Compound 5, 2H-Pyrido[2,3-g][1,4]benzothiazine-5,10-dione, 3,4-dihydro-1,1-dioxo-7-carbonitrile] | 1.57 µM | 50% | 25% | – | –
COC(O)c1ccc2c(n1)C(=O)C1=C(C2=O)S(=O)(=O)CCN1 (stereo not drawn) [Compound 19] | 13 µM | – | – | – | –
Cc1ccc2c(n1)C(=O)C1=C(C2=O)S(=O)(=O)CCN1 [Compound 9, 2H-Pyrido[2,3-g][1,4]benzothiazine-5,10-dione, 3,4-dihydro-7-methyl-1,1-dioxide] | > 90 µM | 80% | 50% | – | –
O=C(O)c1ccc2c(n1)C(=O)C1=C(NC=CS1(=O)=O)C2=O [Compound 2] | 0.07 µM | – | – | – | –
O=C1C2=C(C(=O)c3ccccc31)S(=O)(=O)CCN2 [Compound 22, 2H-Naphtho[2,3-b]-1,4-thiazine-5,10-dione, 3,4-dihydro-1,1-dioxide] | > 106 µM | 80% | 25% | cytotoxic | –
O=C(O)c1ccc2c(n1)C(=O)C1=C(C2=O)S(=O)(=O)C=CN1 [Compound 20, 4H-Pyrido[2,3-g][1,4]benzothiazine-5,10-dione-1,1-dioxo-7-carboxylic acid] | 0.09 µM | – | – | – | –
CN(C)C(=O)c1ccc2c(n1)C(=O)C1=C(C2=O)S(=O)(=O)CCN1 [Compound 12, 2H-Pyrido[2,3-g][1,4]benzothiazine-5,10-dione, 3,4-dihydro-N,N-dimethyl-1,1-dioxo-7-carboxamide] | 79 µM | 85% | 65% | – | –
O=C1C2=C(NCCS2(=O)=O)C(=O)c2nc(C3OCCO3)ccc21 [Compound 17] | > 74 µM | – | – | – | –
O=C1C2=C(NCCS2(=O)=O)C(=O)c2ncccc21 [Compound 11, 2H-Pyrido[2,3-g][1,4]benzothiazine-5,10-dione, 3,4-dihydro-1,1-dioxide] | 30 µM | 20% | 30% | – | –
Cc1ccc2c(n1)C(=O)C1=C(C2=O)S(=O)(=O)C=CN1 [Compound 21, 4H-Pyrido[2,3-g][1,4]benzothiazine-5,10-dione-7-methyl-1,1-dioxide] | 8.93 µM | 40% | 30% | – | –
CC(C)=CCCc1ccc2c(c1)C(=O)C1=C(NCCS1(=O)=O)C2=O [(A)] | – | – | – | – | cytotoxic
O=C(O)c1ccc2c(n1)C(=O)C1=C(C2=O)S(=O)(=O)CCN1 [Compound 1, 2H-Pyrido[2,3-g][1,4]benzothiazine-5,10-dione, 3,4-dihydr-1,1-dioxo-7-carboxylic acid] | 0.14 µM | – | – | – | –
O=C(/C=C/c1ccc2c(n1)C(=O)C1=C(C2=O)S(=O)(=O)CCN1)c1ccccc1 [Compound 16, (E)-1-phenyl-3-(2H-Pyrido[2,3-g][1,4]benzothiazine-5,10-dione, 3,4-dihydro-1,1-dioxide)prop-2-en-1-one.] | 7.76 µM | 65% | 30% | – | –
CC(C)=CCCc1ccc2c(c1)C(=O)C1=C(C2=O)S(=O)(=O)CCN1 [(B)] | – | – | – | – | cytotoxic
Cc1ccc2c(n1)C(=O)C1=C(NCCS1(=O)=O)C2=O [Compound 10, 1H-Pyrido[3,2-g][1,4]benzothiazine-5,10-dione, 2,3-dihydro-7-methyl-1,1-dioxide] | > 90 µM | 40% | 30% | – | –
CN(C)C(=O)c1ccc2c(n1)C(=O)C1=C(NCCS1(=O)=O)C2=O [Compound 13, 1H-Pyrido[3,2-g][1,4]benzothiazine-5,10-dione, 2,3-dihydro-N,N-dimethyl-1,1-dioxo-7-carboxamide] | 149 µM | – | – | – | –
N#Cc1ccc2c(O)c3c(c(O)c2n1)NCCS3(=O)=O [Compound 6, 2H-Pyrido[2,3-g][1,4]benzothiazine-5,10-dihydroxy, 3,4-dihydro-1,1-dioxo-7-carbonitrile] | 4.85 µM | – | – | – | –
O=Cc1ccc2c(n1)C(=O)C1=C(C2=O)S(=O)(=O)CCN1 [Compound 18, 2H-Pyrido[2,3-g][1,4]benzothiazine-5,10-dione, 3,4-dihydro1,1-dioxo-7-carbaldehyde] | 4.17 µM | 40% | – | – | –
